Holding throughout (format): cell-based
One assay deals with BRD4 (Homo sapiens, UniProt O60885). Description: BRD4 degradation assay (Western-blot / Simple Western) in 22RV1 cells. The note with it: for activity at 0.2 µM: 22Rv1, 5 h, read-out: BRD4 degradation of 22RV1 (200 nM 5 h).
In the next assay the test system is LNCaP. Description: Cell proliferation assay (CellTiterGlo). The conditions noted are these: LNCaP cells, 72 h compound treatment, CellTiterGlo cell viability, read-out: LNCap ATP average IC50. The protocol:
(§1) Test Example 1. Cell Proliferation Assay
(§2) The cell line used was 22RV1 or LNCaP, and the medium was RPMI-1640 containing 10% FBS and antibiotics. All incubations were performed at 37 °C in a humidified carbon dioxide incubator.
(§3) On day 1, cells were digested with 0.25% trypsin (containing EDTA) and collected by centrifugation. The cells were seeded in a 96-well plate (white wall/transparent bottom) at 5000 cells/well and cultured overnight.
(§4) On day 2, A stock solution of the compound at a concentration of 10 mM was subjected to an 8-fold serial dilution to obtain 8 concentration points. 2 µL of the compound solution at each concentration point was added to 98 µL of fresh medium, and the mixture was mixed homogeneously. Then, 5 µL of the compound solution diluted in the medium at each concentration point was added to 100 µL of overnight medium containing the cells, and 2 replicates were set for each concentration. The mixture was cultured for 72 h.
(§5) After 72 h of compound treatment, the plate was equilibrated to room temperature, 100 µL of CellTiterGlo (Promega) was added. The mixture was mixed homogeneously for 2 min, left to stand at room temperature for 10 min, and then read for luminescence values on a SpectraMax M5 microplate reader to evaluate cell viability. The positive control was 1% Tween-20 and the negative control was 0.1% DMSO. IC50 was generated by 4-parameter non-linear regression fitting in GraphPad Prism.
For orientation: In ATP-based viability assays light output follows the ATP content of the culture.

In a further assay the test system is 22RV1. Description: Cell proliferation assay (CellTiterGlo). The conditions noted are these: 22RV1 cells, 72 h compound treatment, CellTiterGlo cell viability, read-out: 22Rv1 ATP average IC50. The protocol:
as §1, §2, §3, §4, §5

By pIC50 is commonly meant the negative decadic logarithm of the IC50, by convention in mol/L.

pIC50: −log10 of the molar value. Where two headings read alike, the source gives them in different places.

In the case of `C=CS(=O)(=O)Nc1ccc(C2=N[C@@H](CC(=O)OC(C)(C)C)c3nnc(C)n3-c3sc(C)c(C)c32)cc1` [compound 9231], the activity at 0.2 µM at BRD4 was less than 20%. Further, the pIC50 was more than 7.30 with LNCaP (Homo sapiens) and 6.70 to 7.30 with 22RV1 (Homo sapiens).

As for `C=CC(=O)Nc1ccc(C2=N[C@@H](CC(=O)OC(C)(C)C)c3nnc(C)n3-c3sc(C)c(C)c32)cc1` [compound 9230], on BRD4, the activity at 0.2 µM was less than 20%. Besides, the pIC50 with LNCaP (Homo sapiens) and in the assay on 22RV1 (Homo sapiens) was more than 7.30 in each case.

With `C#CC(=O)Nc1ccc(C2=N[C@@H](CC(=O)OC(C)(C)C)c3nnc(C)n3-c3sc(C)c(C)c32)cc1` [compound 9260], the activity at 0.2 µM on BRD4 was less than 20%. Moreover, the pIC50 with LNCaP (Homo sapiens) and in the assay on 22RV1 (Homo sapiens) was more than 7.30 each time.

Turning to `Cc1sc2c(c1C)C(c1ccc(NC(=O)CCl)cc1)=N[C@@H](Cc1nccs1)c1nnc(C)n1-2` [compound 9250], at BRD4, the activity at 0.2 µM is 80 to 100%. Besides, the pIC50 with LNCaP (Homo sapiens) and in the assay with 22RV1 (Homo sapiens) was more than 7.30 throughout.

As to `CC#CC(=O)Nc1ccc(C2=N[C@@H](CC(=O)OC(C)(C)C)c3nnc(C)n3-c3sc(C)c(C)c32)cc1` [compound 9259], the activity at 0.2 µM at BRD4 was 20 to 50%. Further, the pIC50 in the assay on LNCaP (Homo sapiens) and in the assay on 22RV1 (Homo sapiens) was more than 7.30 throughout.

`CC#CC(=O)Nc1ccc(C2=N[C@@H](Cc3nccs3)c3nnc(C)n3-c3sc(C)c(C)c32)cc1` [compound 9253]: on BRD4, the activity at 0.2 µM is 50 to 80%. In addition, the pIC50 in the assay on LNCaP (Homo sapiens) and with 22RV1 (Homo sapiens) was more than 7.30 each time.

On to `Cc1sc2c(c1C)C(c1ccc(C#CCN)cc1)=N[C@@H](CC(=O)OC(C)(C)C)c1nnc(C)n1-2` [GNE-0011, reference compound], for which, at BRD4 (22RV1 cells, 200 nM, 5 h, target content as percentage of control (DMSO = 100%)), the “BRD4 degradation of 22RV1 (200 nM 5 h)” value was “B (20% < B <50%)”. The pIC50 with LNCaP and in the assay on 22RV1 was more than 7.30 in each case.

Values taken from EP4786472A1, “BRD4 PROTEIN DEGRADATION AGENT COMPOUND, AND PREPARATION METHOD AND USE THEREFOR” (Miracure Biotechnology Limited, priority 2023, dated 2025).
